# Measurements reported in patent publication US20160010086A1, “OLIGOMERIC COMPOUNDS AND EXCIPIENTS” (ISIS PHARMACEUTICALS, INC., priority 2009, published 2016).
# How the values were obtained:
# [1] = test system: PTEN mRNA; assay: Antisense activity (pharmacodynamics) of ISIS 116847 in mouse liver; type: in vivo, mice
# Experimental: Tissues are homogenized in guanidine isothyocyanate buffer (4 M guanidine isothiocyanate, 25 mM EDTA, 1 M β-mercaptoethanol, 50 mM Tris-HCl, pH 6) immediately following sacrifice. RNA is extracted using RNeasy columns (Qiagen) according to manufacturer's protocol. RNA is eluted from the columns with water. RNA samples are analyzed by fluorescence-based quantitative RT-PCR using an Applied Biosystems 7700 sequence detector. Levels of target RNAs as well as those of cyclophilin A, a housekeeping gene, are determined. Target RNA levels were normalized to cyclophilin levels for each RNA sample. Primers used for determination of PTEN RNA level are as follows: FP 5′ […] 3′ (SEQ ID NO: 3), RP 5′ […] 3′ (SEQ ID NO: 4), and PR 5′ 6FAM-[…]-TAMRA 3′(SEQ ID NO 5). Primers used for determination of cyclophilin A RNA level are as follows: FP 5′ TCGCCGCTTGCTGCA 3′(SEQ ID NO: 6), RP 5′ ATCGGCCGTGATGTCGA 3′(SEQ ID NO: 7), and PR 5′ 6FAM-[…]-TAMRA 3′(SEQ ID NO: 8).
# [2] = mouse, in vivo
substance,measurement,setting,value
5′-CTGCT agcctctgga TTTGA-3′ (CTGCTAGCCTCTGGATTTGA; chemistry not given here) [ISIS 116847],activity of the active antisense oligonucleotide,[1]; co-administered with a nonsense oligonucleotide,enhanced
same,pharmacodynamics with increased liver drug concentration,"[1]; slower infusion, lowest doses",did not provide improved pharmacodynamics
same,uptake in whole liver,[2],favored at lower plasma concentrations
